# From article PMC6428840, “The Arabidopsis H3K27me3 demethylase JUMONJI 13 is a temperature and photoperiod dependent flowering repressor” (Nature Communications, 2019)
# Biological target: T1, JMJ13CD (JMJ13 catalytic domain) (Arabidopsis thaliana, UniProt F4KIX0)
# T1 construct: catalytic domain, residues 90-578 (jumonji, helical and C4HCHC zinc finger domains); His6-SUMO tag removed by ulp1; E. coli BL21(DE3) RIL; Ni2+ in place of Fe2+
# Experiment: X-ray crystal structure, […] Å
# Type: binding
# Details: JMJ13-NOG crystals soaked with 10 mM H3(24-35)K27me3 peptide; Ni2+ in place of Fe2+; pH 6.5; active site, α-KG analog
# T1 sequence (F4KIX0 90-578): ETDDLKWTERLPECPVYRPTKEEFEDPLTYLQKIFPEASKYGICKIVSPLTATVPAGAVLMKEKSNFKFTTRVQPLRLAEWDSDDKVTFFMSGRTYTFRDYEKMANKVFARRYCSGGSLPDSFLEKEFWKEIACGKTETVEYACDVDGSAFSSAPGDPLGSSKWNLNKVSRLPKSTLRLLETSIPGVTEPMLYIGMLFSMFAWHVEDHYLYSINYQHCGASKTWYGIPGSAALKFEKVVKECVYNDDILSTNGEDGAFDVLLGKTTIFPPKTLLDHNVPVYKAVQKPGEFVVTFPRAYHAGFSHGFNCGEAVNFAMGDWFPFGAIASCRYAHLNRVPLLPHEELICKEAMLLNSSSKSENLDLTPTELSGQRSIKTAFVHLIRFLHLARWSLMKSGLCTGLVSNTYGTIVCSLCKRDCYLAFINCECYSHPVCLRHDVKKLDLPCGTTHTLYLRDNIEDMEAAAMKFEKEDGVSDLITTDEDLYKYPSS
compound,measurement,value
"O=C(O)CNC(=O)C(=O)O [NOG, N-oxalylglycine]","X-ray crystal structure, 2.6 Å",in complex with the α-KG analog N-oxalylglycine (NOG) and an H3K27me3 peptide
